Assay results as given in ChEMBL document CHEMBL6092137, “Synergistic immune augmentation enabled by covalently conjugating TLR4 and NOD2 agonists” (Eur J Med Chem, 2024).
Calls of active or inactive are those of the source. The calls are words filed in the database; no cut-off is given here.

Tests used:
[1] = system: BMDC; assay: Immunostimulatory activity in C57BL/6 mouse BMDC cells assessed as increase in IL-6 level at 9.3 uM incubated for 20 hrs in presence of GSK717 inhibitor by ELISA; type: functional, cell-based
[2] = Induction of mouse RAW264.7 cell maturation assessed as change in CD80 positive cells incubated for 18 hrs by staining based flow cytometric analysis relative to control; type: functional
[3] = Induction of mouse RAW264.7 cell maturation assessed as change in CD86 positive cells incubated for 18 hrs by staining based flow cytometric analysis relative to control; type: functional
[4] = Induction of mouse BMDC cell maturation assessed as change in CD80 positive cells incubated for 18 hrs by staining based flow cytometric analysis relative to control; type: functional
[5] = Induction of mouse BMDC cell maturation assessed as change in CD86 positive cells incubated for 18 hrs by staining based flow cytometric analysis relative to control; type: functional
[6] = system: THP-1; assay: Cytotoxicity against human THP-1 cells assessed as reduction in cell viability by MTT assay; type: toxicity, cell-based
[7] = system: Mus musculus; assay: Induction of innate immunity in BALB/c mouse assessed as fold increase in IL-6 level in serum at 16.12 ug, ip in liposome formulation measured after 2 hrs by ELISA relative to RC529-NH2; type: functional; settings: dose 16.12 µg
[8] = system: Mus musculus; assay: Induction of innate immunity in BALB/c mouse assessed as fold increase in IL-6 level in serum at 16.12 ug, ip measured after 2 hrs in presence of muramyl dipeptide by ELISA relative to RC529; type: functional; settings: dose 16.12 µg
[9] = system: Mus musculus; assay: Induction of innate immunity in BALB/c mouse assessed as fold increase in IL-6 level in serum at 5.36 ug, ip measured after 2 hrs in presence of muramyl dipeptide by ELISA relative to muramyl dipeptide; type: functional; settings: dose 5.36 µg
[10] = system: BMDC; assay: Immunostimulatory activity in C57BL/6 mouse BMDC cells assessed as increase in IL-6 level at 9.3 uM incubated for 20 hrs in presence of TAK242 inhibitor by ELISA; type: functional, cell-based
[11] = Induction of mouse RAW264.7 cell maturation assessed as fold increase in CD80 positive cells incubated for 18 hrs in the presence of muramyl dipeptide by staining based flow cytometric analysis relative to RC529; type: functional
[12] = Induction of mouse RAW264.7 cell maturation assessed as fold increase in CD80 positive cells incubated for 18 hrs in the presence of muramyl dipeptide by staining based flow cytometric analysis relative to muramyl dipeptide; type: functional
[13] = Induction of mouse RAW264.7 cell maturation assessed as change in CD80 positive cells incubated for 18 hrs in the presence of muramyl dipeptide by staining based flow cytometric analysis relative to control; type: functional
[14] = Induction of mouse RAW264.7 cell maturation assessed as change in CD86 positive cells incubated for 18 hrs in the presence of muramyl dipeptide by staining based flow cytometric analysis relative to control; type: functional
[15] = Induction of mouse BMDC cell maturation assessed as change in CD80 positive cells incubated for 18 hrs in the presence of muramyl dipeptide by staining based flow cytometric analysis relative to control; type: functional
[16] = Induction of mouse BMDC cell maturation assessed as change in CD86 positive cells incubated for 18 hrs in the presence of muramyl dipeptide by staining based flow cytometric analysis relative to control; type: functional
[17] = species on record: Mus musculus; assay: Activation of adaptive immune response in ovalbumin immunized mouse model assessed as fold increase in IgG titers incubated for 1 hrs in presence of muramyl dipeptide and measured on day 42 relative to RC529; type: functional
[18] = species on record: Mus musculus; assay: Activation of adaptive immune response in ovalbumin immunized mouse model assessed as fold increase in IgG titers incubated for 1 hrs in presence of muramyl dipeptide and measured on day 42 relative to muramyl dipeptide; type: functional
[19] = system: T-cell; assay: Immunostimulatory activity in mouse spleen T-lymphocytes assessed as fold increase in proportion of TNF-alpha and IFN-gamma double-positive secreting CD4+ cells and measured on day 42 in the presence of muramyl dipeptide by staining based flow cytometric analysis relative to RC529; type: functional; settings: time 42 day
[20] = system: T-cell; assay: Immunostimulatory activity in mouse spleen T-lymphocytes assessed as fold increase in proportion of TNF-alpha and IFN-gamma double-positive secreting CD4+ cells and measured on day 42 in the presence of muramyl dipeptide by staining based flow cytometric analysis relative to muramyl dipeptide; type: functional; settings: time 42 day
[21] = Induction of mouse RAW264.7 cell maturation assessed as fold increase in CD80 positive cells incubated for 18 hrs in the presence of muramyl dipeptide by staining based flow cytometric analysis relative to RC529-NH2; type: functional

| Compound | Activity [2] [%] | Activity [3] [%] | Activity [4] [%] | Activity [5] [%] | Activity [6] | Activity [10] | fold change (FC) [12] | Activity [13] [%] | Activity [14] [%] | Activity [15] [%] | Activity [16] [%] | further results |
| --- | --- | --- | --- | --- | --- | --- | --- | --- | --- | --- | --- | --- |
| CC(=O)N[C@@H]1[C@@H](O[C@H](C)C(=O)N[C@@H](C)C(=O)N[C@H](CCC(=O)O)C(N)=O)[C@H](O)[C@@H](CO)O[C@H]1O [MURAMYLDIPEPTIDE] | 12.2 | 10.8 | 13.6 | 11.4 | – | – | – | – | – | – | – | Activity [1]: inactive |
| CCOC(=O)C1=CCCC[C@H]1S(=O)(=O)Nc1ccc(F)cc1Cl [RESATORVID] | – | – | – | – | Non-toxic | – | – | – | – | – | – | – |
| CCCCCCCCCCCCCC(=O)O[C@H](CCCCCCCCCCC)CC(=O)NCCO[C@@H]1O[C@H](CO)[C@@H](OP(=O)(O)O)[C@H](OC(=O)C[C@@H](CCCCCCCCCCC)OC(=O)CCCCCCCCCCCCC)[C@H]1NC(=O)C[C@@H](CCCCCCCCCCC)OC(=O)CCCCCCCCCCCCC.CCN(CC)CC | 26.9 | 13.1 | 21.6 | 14 | – | inactive | 2.4 | 28.7 | 13.4 | 24.1 | 14.6 | fold change (FC) [7]: 21; fold change (FC) [8]: 1.04; fold change (FC) [9]: 17; fold change (FC) [11]: 1.1; fold change (FC) [17]: 1.1; fold change (FC) [18]: 1.9; fold change (FC) [19]: 1.2; fold change (FC) [20]: 1.2 |
| CN(CCc1nc2ccccc2n1CC(=O)Nc1ccc2c(c1)CCC2)C(=O)c1ccccc1 | – | – | – | – | Non-toxic | – | – | – | – | – | – | – |
| CCCCCCCCCCCCCC(=O)O[C@H](CCCCCCCCCCC)CC(=O)NCCO[C@@H]1O[C@H](CN)[C@@H](OP(=O)(O)O)[C@H](OC(=O)C[C@@H](CCCCCCCCCCC)OC(=O)CCCCCCCCCCCCC)[C@H]1NC(=O)C[C@@H](CCCCCCCCCCC)OC(=O)CCCCCCCCCCCCC | 14.7 | 10.7 | 15.3 | 12.9 | – | inactive | 1.3 | 16.2 | 10.9 | 22.8 | 14.4 | fold change (FC) [21]: 1.1 |
